Results from ChEMBL document CHEMBL3714712, “Thieno [2,3-c]pyrazoles for use as potassium channel inhibitors” (2013).

Target: T1, Kir3.1/Kir3.4 (Rattus norvegicus, UniProt P48548+P63251)
T1 sequence (P63251 whole entry): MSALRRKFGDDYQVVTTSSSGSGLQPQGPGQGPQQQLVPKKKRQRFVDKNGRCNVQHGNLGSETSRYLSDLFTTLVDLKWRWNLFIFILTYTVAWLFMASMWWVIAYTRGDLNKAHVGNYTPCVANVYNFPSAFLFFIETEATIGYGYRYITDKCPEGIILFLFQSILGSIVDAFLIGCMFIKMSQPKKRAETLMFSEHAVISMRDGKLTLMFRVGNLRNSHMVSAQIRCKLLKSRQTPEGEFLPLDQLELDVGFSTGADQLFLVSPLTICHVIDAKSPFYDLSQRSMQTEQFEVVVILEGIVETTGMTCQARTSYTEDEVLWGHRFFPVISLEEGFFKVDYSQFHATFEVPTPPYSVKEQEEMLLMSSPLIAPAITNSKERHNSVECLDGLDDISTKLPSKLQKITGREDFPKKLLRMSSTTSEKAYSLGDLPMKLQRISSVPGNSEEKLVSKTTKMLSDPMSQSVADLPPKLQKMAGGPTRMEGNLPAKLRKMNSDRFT
T1 sequence (P48548 whole entry): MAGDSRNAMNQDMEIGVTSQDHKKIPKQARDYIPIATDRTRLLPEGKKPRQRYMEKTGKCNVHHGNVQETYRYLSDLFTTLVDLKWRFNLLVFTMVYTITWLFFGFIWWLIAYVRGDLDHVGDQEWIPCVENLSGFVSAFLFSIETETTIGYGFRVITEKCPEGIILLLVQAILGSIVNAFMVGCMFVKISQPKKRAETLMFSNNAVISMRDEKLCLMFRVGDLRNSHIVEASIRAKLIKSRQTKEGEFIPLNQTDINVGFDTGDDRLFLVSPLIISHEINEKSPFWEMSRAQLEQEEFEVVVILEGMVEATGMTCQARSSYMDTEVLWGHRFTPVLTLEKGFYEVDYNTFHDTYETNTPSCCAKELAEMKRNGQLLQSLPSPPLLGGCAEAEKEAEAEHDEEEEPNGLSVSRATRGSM
Assay: Inhibition of rat Kir3.1/Kir3.4 expressed in HEK293 cells assessed as reduction in depolarizing voltage step-induced recombinant G-protein activated inward rectifier current by whole cell patch clamp assay
Format: cell-based

| SMILES | IC50 [nM] |
| --- | --- |
| CC(C)NC1CC2CCC(C1)N2c1n[nH]c2scc(-c3ccccc3)c12 (stereo not given) | 500 |
| CS(=O)(=O)n1nc(N2CC3CC2CC3OCCN2CCCC2)c2c(-c3ccc(F)cc3)csc21 (stereo not given) | < 500 |
| Cn1nc(N2CCC(COCCN3CCCC3)CC2)c2c(-c3ccccc3)csc21 | < 500 |
| c1ccc(-c2csc3[nH]nc(N4C5CCC4CC(NC4CCC4)C5)c23)cc1 (stereo not given) | < 500 |
| c1ccc(-c2csc3[nH]nc(N4CCC(COCCN5CCCC5)C4)c23)cc1 (stereo not given) | < 500 |
| CC(=O)n1nc(N2CC3CC2CC3OCCN2CCCC2)c2c(-c3ccccc3)csc21 (stereo not given) | < 500 |
| CC(=O)n1nc(N2CC3CC2CC3OCCN2CCCC2)c2c(-c3ccc(F)cc3)csc21 (stereo not given) | < 500 |
| CC(=O)n1nc(N2C3CCC2CC(OCCN2CCCC2)C3)c2c(-c3ccccc3)csc21 (stereo not given) | < 500 |
| c1ccc(-c2csc3[nH]nc(N4CCC(COCCN5CCCC5)CC4)c23)cc1 | < 500 |
| CC(=O)n1nc(N2CCC(COCCN3CCCC3)C2)c2c(-c3ccccc3)csc21 (stereo not given) | < 500 |
| c1ccc(-c2csc3[nH]nc(N4CC5CC4CC5OCCN4CCCC4)c23)cc1 (stereo not given) | < 500 |
| CNC(=O)c1sc2[nH]nc(N3CCC(COCCN4CCCC4)CC3)c2c1-c1ccccc1 | < 500 |
| N#Cc1sc2[nH]nc(N3CCC(COCCN4CCCC4)CC3)c2c1-c1ccccc1 | < 500 |
| CC(=O)n1nc(N2CCC(COCCN3CCCC3)CC2)c2c(-c3ccccc3)csc21 | < 500 |
| CS(=O)(=O)n1nc(N2CCC(COCCN3CCCC3)CC2)c2c(-c3ccccc3)csc21 | < 500 |
| Fc1ccc(-c2csc3[nH]nc(N4CC5CC4CC5OCCN4CCCC4)c23)cc1 (stereo not given) | < 500 |
| c1ccc(-c2csc3[nH]nc(N4C5CCC4CC(N4CCC4)C5)c23)cc1 (stereo not given) | 500 |
| CN(C)C(=O)c1sc2c(c(N3CCC(COCCN4CCCC4)CC3)nn2C)c1-c1ccccc1 | 500 |
| CN(C)C(=O)c1sc2[nH]nc(N3CCC(COCCN4CCCC4)CC3)c2c1-c1ccccc1 | 500 |
| c1ccc(-c2csc3[nH]nc(N4CCCC(COCCN5CCCC5)C4)c23)cc1 (stereo not given) | < 500 |
| CC(=O)n1nc(N2CCCC(COCCN3CCCC3)C2)c2c(-c3ccccc3)csc21 (stereo not given) | < 500 |
| c1ccc(-c2csc3[nH]nc(N4C5CCC4CC(OCCN4CCCC4)C5)c23)cc1 (stereo not given) | < 500 |
| Brc1sc2[nH]nc(N3CC4CC3CC4OCCN3CCCC3)c2c1-c1ccccc1 (stereo not given) | < 500 |
| c1ccc(-c2csc3[nH]nc(N4C5CCC4CC(COCCN4CCCC4)C5)c23)cc1 (stereo not given) | < 500 |
| CC(C)NC(=O)c1sc2[nH]nc(N3CCC(COCCN4CCCC4)CC3)c2c1-c1ccccc1 | < 500 |
